What all share (format): biochemical
One test addresses JAK1 (Homo sapiens (Human), UniProt P23458). The test is described as follows: Enzyme assay (Assay Example^a 1), JAK1. Particulars: ATP 100 μM.
The target in another test is JAK2 (Homo sapiens (Human), UniProt O60674). The test can be described thus: Enzyme assay (Assay Example^a 1), JAK2.
In a further test the target is JAK3 (Homo sapiens (Human), UniProt P52333). The test is described as follows: Enzyme assay (Assay Example^a 1), JAK3. To be noted: ATP 100 μM.
JAK3, sequence (P52333 whole entry): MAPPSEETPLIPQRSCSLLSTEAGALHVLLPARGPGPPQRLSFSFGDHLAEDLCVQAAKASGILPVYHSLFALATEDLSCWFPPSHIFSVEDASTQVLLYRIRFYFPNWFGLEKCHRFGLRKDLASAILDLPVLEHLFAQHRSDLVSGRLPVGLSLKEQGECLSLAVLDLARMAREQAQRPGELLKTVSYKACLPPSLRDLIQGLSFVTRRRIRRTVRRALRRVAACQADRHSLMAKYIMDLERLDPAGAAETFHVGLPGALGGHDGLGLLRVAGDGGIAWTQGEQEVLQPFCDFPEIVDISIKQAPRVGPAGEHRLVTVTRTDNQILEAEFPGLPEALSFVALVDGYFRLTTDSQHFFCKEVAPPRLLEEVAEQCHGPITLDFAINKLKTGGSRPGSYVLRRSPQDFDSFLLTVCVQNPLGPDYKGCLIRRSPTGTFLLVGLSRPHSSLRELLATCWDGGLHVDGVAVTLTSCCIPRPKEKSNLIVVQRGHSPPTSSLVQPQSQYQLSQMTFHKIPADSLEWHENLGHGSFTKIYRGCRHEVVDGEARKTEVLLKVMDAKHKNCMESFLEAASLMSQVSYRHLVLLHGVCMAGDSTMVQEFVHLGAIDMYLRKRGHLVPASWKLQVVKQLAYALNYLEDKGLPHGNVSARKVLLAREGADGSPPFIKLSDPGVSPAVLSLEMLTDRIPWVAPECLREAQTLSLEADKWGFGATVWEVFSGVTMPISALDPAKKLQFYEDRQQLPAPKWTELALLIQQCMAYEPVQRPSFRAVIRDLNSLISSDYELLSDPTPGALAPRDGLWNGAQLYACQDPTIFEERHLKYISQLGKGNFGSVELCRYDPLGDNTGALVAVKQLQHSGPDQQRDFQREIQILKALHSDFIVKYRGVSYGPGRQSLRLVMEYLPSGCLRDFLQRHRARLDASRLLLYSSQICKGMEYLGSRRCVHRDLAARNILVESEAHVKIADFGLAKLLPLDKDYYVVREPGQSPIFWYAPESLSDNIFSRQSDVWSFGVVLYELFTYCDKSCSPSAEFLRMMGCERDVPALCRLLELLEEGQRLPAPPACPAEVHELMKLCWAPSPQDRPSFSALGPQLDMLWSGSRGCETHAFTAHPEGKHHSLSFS
For the next test, the target named is Tyk2 (Homo sapiens (Human), UniProt P29597). The test is described as follows: Enzyme assay (Assay Example^a 1), Tyk2. To be noted: ATP 100 μM.
Tyk2, sequence (P29597 whole entry): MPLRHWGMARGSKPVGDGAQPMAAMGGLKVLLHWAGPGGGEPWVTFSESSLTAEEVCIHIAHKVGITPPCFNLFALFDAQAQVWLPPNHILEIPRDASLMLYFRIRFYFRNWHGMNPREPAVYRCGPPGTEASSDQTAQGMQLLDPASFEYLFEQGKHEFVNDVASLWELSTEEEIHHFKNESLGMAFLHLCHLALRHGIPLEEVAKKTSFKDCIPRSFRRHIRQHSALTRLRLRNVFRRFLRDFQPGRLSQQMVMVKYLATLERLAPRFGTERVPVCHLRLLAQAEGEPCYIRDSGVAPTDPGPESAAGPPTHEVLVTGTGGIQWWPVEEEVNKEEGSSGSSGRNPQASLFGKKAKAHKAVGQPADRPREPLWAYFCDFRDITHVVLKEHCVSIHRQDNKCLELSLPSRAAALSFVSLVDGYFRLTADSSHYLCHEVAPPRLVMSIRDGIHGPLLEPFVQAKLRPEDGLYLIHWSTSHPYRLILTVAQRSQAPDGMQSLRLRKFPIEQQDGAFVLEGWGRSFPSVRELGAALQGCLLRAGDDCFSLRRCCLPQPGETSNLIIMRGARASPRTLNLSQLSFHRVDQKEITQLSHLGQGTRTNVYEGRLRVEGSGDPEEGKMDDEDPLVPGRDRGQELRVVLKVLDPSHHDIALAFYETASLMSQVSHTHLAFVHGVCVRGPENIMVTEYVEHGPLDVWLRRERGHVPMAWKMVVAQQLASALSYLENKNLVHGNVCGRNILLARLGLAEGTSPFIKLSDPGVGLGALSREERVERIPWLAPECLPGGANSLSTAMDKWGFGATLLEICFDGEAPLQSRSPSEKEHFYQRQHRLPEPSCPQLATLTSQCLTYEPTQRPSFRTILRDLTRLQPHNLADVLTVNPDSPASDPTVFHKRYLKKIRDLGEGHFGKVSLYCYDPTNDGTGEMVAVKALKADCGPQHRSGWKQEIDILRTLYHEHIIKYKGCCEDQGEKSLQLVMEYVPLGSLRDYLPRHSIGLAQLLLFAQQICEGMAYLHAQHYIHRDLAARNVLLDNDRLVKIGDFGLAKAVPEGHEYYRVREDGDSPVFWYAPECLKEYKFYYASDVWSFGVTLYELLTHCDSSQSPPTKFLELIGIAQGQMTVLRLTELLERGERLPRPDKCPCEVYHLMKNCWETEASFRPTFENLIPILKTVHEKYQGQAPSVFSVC

The structures appear in SMILES notation. Like-named read-outs stand apart in the source and are kept apart here.

Regarding `COCC1(NC[C@H]2CC[C@H](c3nnn4cnc5[nH]ccc5c34)CC2)CC1` [compound 293, N-{[trans-4-(7H-pyrrolo[3,2-e][1,2,3]triazolo[1,5-c]pyrimidin-1-yl)cyclohexyl]methyl}-1-(methoxymethyl)cyclopropanamine], the half-maximal inhibitory concentration (IC50) against JAK1 is 0.024 µM; on JAK2 (ATP 100 μM) it was 0.1 µM; on JAK3 it was 0.94 µM; against Tyk2, 0.31 µM.
Consider `c1cc2c(ncn3nnc([C@H]4CC[C@H](CNC5COC5)CC4)c23)[nH]1` [compound 294, N-{[trans-4-(7H-pyrrolo[3,2-e][1,2,3]triazolo[1,5-c]pyrimidin-1-yl)cyclohexyl]methyl}oxetan-3-amine], for which the IC50 on JAK1 is 0.022 µM; against JAK2 (ATP 100 μM) it was 0.12 µM; on JAK3, 0.48 µM; at Tyk2 it was 0.34 µM.
Regarding `CC1(NC[C@H]2CC[C@H](c3nnn4cnc5[nH]ccc5c34)CC2)CC1` [compound 295, N-{[trans-4-(7H-pyrrolo[3,2-e][1,2,3]triazolo[1,5-c]pyrimidin-1-yl)cyclohexyl]methyl}-1-methylcyclopropanamine], the IC50 against JAK1 was found to be 0.0069 µM; against JAK2 (ATP 100 μM), 0.064 µM; on JAK3 it was 0.84 µM; against Tyk2, 0.33 µM.
Taken in the same sequence, the figures for `CN(C)C[C@H]1CC[C@H](c2nnn3cnc4[nH]ccc4c23)CC1` [compound 296, 1-[trans-4-(7H-pyrrolo[3,2-e][1,2,3]triazolo[1,5-c]pyrimidin-1-yl)cyclohexyl]-N,N-dimethylmethanamine] were 0.0038 µM, 0.065 µM, 0.73 µM and 0.19 µM.
On to `CN(CCO)C[C@H]1CC[C@H](c2nnn3cnc4[nH]ccc4c23)CC1` [compound 297, 2-({[trans-4-(7H-pyrrolo[3,2-e][1,2,3]triazolo[1,5-c]pyrimidin-1-yl)cyclohexyl]methyl}(methyl)amino)ethanol], for which the half-inhibitory concentration (IC50) against JAK1 was 0.0095 µM; against JAK2 (ATP 100 μM), 0.1 µM; at JAK3, greater than 1 µM; at Tyk2, 0.32 µM.
With `OCCN(CCO)C[C@H]1CC[C@H](c2nnn3cnc4[nH]ccc4c23)CC1` [compound 298, 2,2′-({[trans-4-(7H-pyrrolo[3,2-e][1,2,3]triazolo[1,5-c]pyrimidin-1-yl)cyclohexyl]methyl}azanediyl)diethanol], the IC50 against JAK1 is 0.019 µM; against JAK2 (ATP 100 μM), 0.11 µM; at JAK3 it was greater than 1 µM; against Tyk2 it was 0.59 µM.
On the same counts, the results for `CC(C)(C)OC(=O)N[C@@H]1CCN(C[C@H]2CC[C@H](c3nnn4cnc5[nH]ccc5c34)CC2)C1` [compound 299, tert-butyl ((R)-1-{[trans-4-(7H-pyrrolo[3,2-e][1,2,3]triazolo[1,5-c]pyrimidin-1-yl)cyclohexyl]methyl}pyrrolidin-3-yl)carbamate] are 0.016 µM, 0.17 µM, greater than 1 µM and greater than 1 µM.
As to `N#CCCN(C[C@H]1CC[C@H](c2nnn3cnc4[nH]ccc4c23)CC1)c1ccccc1` [compound 300, 3-({[trans-4-(7H-pyrrolo[3,2-e][1,2,3]triazolo[1,5-c]pyrimidin-1-yl)cyclohexyl]methyl}(phenyl)amino)propanenitrile], the IC50 on JAK1 was 0.025 µM; at JAK2 (ATP 100 μM), 0.059 µM; against JAK3, 0.75 µM; against Tyk2, greater than 1 µM.
For `N#C[C@@H]1CCN(C[C@H]2CC[C@H](c3nnn4cnc5[nH]ccc5c34)CC2)C1` [compound 301, (R)-1-{[trans-4-(7H-pyrrolo[3,2-e][1,2,3]triazolo[1,5-c]pyrimidin-1-yl)cyclohexyl]methyl}pyrrolidine-3-carbonitrile], the IC50 at JAK1 is 0.024 µM; at JAK2 (ATP 100 μM) it was 0.072 µM; against JAK3, 0.96 µM; against Tyk2, greater than 1 µM.
For `CN(CCC#N)C[C@H]1CC[C@H](c2nnn3cnc4[nH]ccc4c23)CC1` [compound 302, 3-({[trans-4-(7H-pyrrolo[3,2-e][1,2,3]triazolo[1,5-c]pyrimidin-1-yl)cyclohexyl]methyl}(methyl)amino)propanenitrile], the IC50 against JAK1 amounted to 0.012 µM; at JAK2 (ATP 100 μM) it was 0.029 µM; at JAK3, 0.49 µM; on Tyk2, 0.36 µM.
On to `OC12CC3CC(C1)C(NC[C@H]1CC[C@H](c4nnn5cnc6[nH]ccc6c45)CC1)C(C3)C2` (stereo partly drawn) [compound 303, (1S,3R,4r,5S,7S)-4-({[trans-4-(7H-pyrrolo[3,2-e][1,2,3]triazolo[1,5-c]pyrimidin-1-yl)cyclohexyl]methyl}amino)adamantan-1-ol], for which the IC50 against JAK1 was 0.057 µM; against JAK2 (ATP 100 μM), 0.35 µM; against JAK3, greater than 1 µM; on Tyk2, greater than 1 µM.
Turning to `OC12CC3CC(C1)C(NC[C@H]1CC[C@H](c4nnn5cnc6[nH]ccc6c45)CC1)C(C3)C2` (stereo partly drawn) [compound 304, (1S,3R,4s,5S,7S)-4-({[trans-4-(7H-pyrrolo[3,2-e][1,2,3]triazolo[1,5-c]pyrimidin-1-yl)cyclohexyl]methyl}amino)adamantan-1-ol], the IC50 against JAK1 is 0.049 µM; against JAK2 (ATP 100 μM) it was 0.27 µM; on JAK3, greater than 1 µM; against Tyk2, greater than 1 µM.
In the case of `O[C@H]1CC[C@H](NC[C@H]2CC[C@H](c3nnn4cnc5[nH]ccc5c34)CC2)CC1` [compound 305, trans-4-({[trans-4-(7H-pyrrolo[3,2-e][1,2,3]triazolo[1,5-c]pyrimidin-1-yl)cyclohexyl]methyl}amino)cyclohexanol], the IC50 is 0.046 µM on JAK1, 0.29 µM on JAK2 (ATP 100 μM), greater than 1 µM at JAK3 and greater than 1 µM against Tyk2.
In the case of `OCCN(C[C@H]1CC[C@H](c2nnn3cnc4[nH]ccc4c23)CC1)C1CCCCC1` [compound 306, 2-({[trans-4-(7H-pyrrolo[3,2-e][1,2,3]triazolo[1,5-c]pyrimidin-1-yl)cyclohexyl]methyl}(cyclohexyl)amino)ethanol], the IC50 against JAK1 was 0.015 µM; against JAK2 (ATP 100 μM), 0.054 µM; on JAK3, greater than 1 µM; on Tyk2, 0.62 µM.
Turning to `CC(C)(C)OC(=O)N[C@H]1CCN(C[C@H]2CC[C@H](c3nnn4cnc5[nH]ccc5c34)CC2)C1` [compound 307, tert-butyl ((S)-1-{[trans-4-(7H-pyrrolo[3,2-e][1,2,3]triazolo[1,5-c]pyrimidin-1-yl)cyclohexyl]methyl}pyrrolidin-3-yl)carbamate], the IC50 on JAK1 was 0.0066 µM; on JAK2 (ATP 100 μM), 0.26 µM; at JAK3, greater than 1 µM; against Tyk2, greater than 1 µM.
As to `Clc1ccc(C2(NC[C@H]3CC[C@H](c4nnn5cnc6[nH]ccc6c45)CC3)COC2)cc1` [compound 308, N-{[trans-4-(7H-pyrrolo[3,2-e][1,2,3]triazolo[1,5-c]pyrimidin-1-yl)cyclohexyl]methyl}-3-(4-chlorophenyl)oxetan-3-amine], the 50% inhibitory concentration (IC50) against JAK1 is 0.0024 µM; against JAK2 (ATP 100 μM), 0.012 µM; at JAK3, 0.24 µM; against Tyk2, 0.79 µM.
For the molecule `OC1(c2ccc(Cl)c(C(F)(F)F)c2)CCN(C[C@H]2CC[C@H](c3nnn4cnc5[nH]ccc5c34)CC2)CC1` [compound 309, 1-{[trans-4-(7H-pyrrolo[3,2-e][1,2,3]triazolo[1,5-c]pyrimidin-1-yl)cyclohexyl]methyl}-4-[4-chloro-3-(trifluoromethyl)phenyl]piperidin-4-ol], the half-maximal inhibitory concentration (IC50) is 0.0076 µM against JAK1, 0.097 µM against JAK2, greater than 1 µM against JAK3 and 0.31 µM against Tyk2.
`N#CC1(c2ccccc2)CCN(C[C@H]2CC[C@H](c3nnn4cnc5[nH]ccc5c34)CC2)CC1` [compound 310, 1-{[trans-4-(7H-pyrrolo[3,2-e][1,2,3]triazolo[1,5-c]pyrimidin-1-yl)cyclohexyl]methyl}-4-phenylpiperidine-4-carbonitrile]: the concentration for half-maximal inhibition (IC50) against JAK1 was 0.071 µM; against JAK2 (ATP 100 μM) it was 0.38 µM; at JAK3 it was greater than 1 µM; at Tyk2 it was greater than 1 µM.
`CC(C)(O)C1CCN(C[C@H]2CC[C@H](c3nnn4cnc5[nH]ccc5c34)CC2)CC1` [compound 311, 2-(1-{[trans-4-(7H-pyrrolo[3,2-e][1,2,3]triazolo[1,5-c]pyrimidin-1-yl)cyclohexyl]methyl}piperidin-4-yl)propan-2-ol]: the IC50 on JAK1 is 0.025 µM; against JAK2 (ATP 100 μM), 0.16 µM; against JAK3, greater than 1 µM; against Tyk2 it was 0.94 µM.
On the same counts, the results for `N#CCCN1CCN(C[C@H]2CC[C@H](c3nnn4cnc5[nH]ccc5c34)CC2)CC1` [compound 314, 3-(4-{[trans-4-(7H-pyrrolo[3,2-e][1,2,3]triazolo[1,5-c]pyrimidin-1-yl)cyclohexyl]methyl}piperazin-1-yl)propanenitrile] are 0.008 µM, 0.19 µM, greater than 1 µM and 0.75 µM.
On the same counts, the results for `OCCN1CCN(C[C@H]2CC[C@H](c3nnn4cnc5[nH]ccc5c34)CC2)CC1` [compound 315, 2-(4-{[trans-4-(7H-pyrrolo[3,2-e][1,2,3]triazolo[1,5-c]pyrimidin-1-yl)cyclohexyl]methyl}piperazin-1-yl)ethanol] are 0.01 µM, 0.2 µM, greater than 1 µM and 0.53 µM.
As to `c1cc2c(ncn3nnc([C@H]4CC[C@H](CNC56CC(C5)C6)CC4)c23)[nH]1` [compound 316, N-{[trans-4-(7H-pyrrolo[3,2-e][1,2,3]triazolo[1,5-c]pyrimidin-1-yl)cyclohexyl]methyl}bicyclo[1.1.1]pentan-1-amine], the IC50 against JAK1 was 0.013 µM; against JAK2 (ATP 100 μM), 0.099 µM; against JAK3, greater than 1 µM; at Tyk2, 0.59 µM.

A word on the IC50: it is the concentration at which inhibition is half-maximal. High values mean a need for much substance, low ones inhibition by little substance.
